Source: patent US11572399B2, “Long-acting GIP peptide analogues” (University of Copenhagen, priority 2017, dated 2023)
Where two headings read alike, the source gives them in different places. Peptide text beside a SMILES is read from it. * marks the point of attachment. C16 diacid = O=C(O)CCCCCCCCCCCCCCC(=O)*; Palmitoyl = CCCCCCCCCCCCCCCC(=O)*

Legend:
[1] = target: T1, human GIP receptor (Homo sapiens, UniProt P48546); experiment: cAMP accumulation assay, antagonism of a GIP-mediated cAMP response (50-80% of max); assay type: cell-based; settings: for Fold change of IC50 versus GIP(5-30)NH2: fold change of IC50 from GIP(5-30)NH2
T1 construct: host or cells: COS-7, transient transfection (calcium phosphate), cDNA in pCMV-Script
T1 sequence (P48546 22-466): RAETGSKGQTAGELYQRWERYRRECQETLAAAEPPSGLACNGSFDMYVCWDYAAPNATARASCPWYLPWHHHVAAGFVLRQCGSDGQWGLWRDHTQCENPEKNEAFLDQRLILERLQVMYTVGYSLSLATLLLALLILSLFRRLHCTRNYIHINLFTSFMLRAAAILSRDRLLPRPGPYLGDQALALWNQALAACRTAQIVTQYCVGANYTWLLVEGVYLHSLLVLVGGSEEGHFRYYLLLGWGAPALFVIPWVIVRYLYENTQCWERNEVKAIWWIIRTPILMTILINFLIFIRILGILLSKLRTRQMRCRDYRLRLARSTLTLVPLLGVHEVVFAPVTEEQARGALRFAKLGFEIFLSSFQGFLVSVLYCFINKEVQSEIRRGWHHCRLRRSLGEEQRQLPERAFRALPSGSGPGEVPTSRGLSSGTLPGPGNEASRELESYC
Method: The day after, the cells were washed twice with Hepes buffered saline (HBS) buffer and incubated with HBS and 1 mM 3-isobutyl-1-methylxanthine (IBMX) for 30 min at 37° C. […] The HitHunter™ cAMP XS assay (DiscoveRx) was carried out according to the manufacturer's instructions.

[2] = target: T1, human GIP receptor; experiment: cAMP accumulation assay, agonism (ligand alone); assay type: cell-based; settings: Table 1; for Emax: COS-7, intrinsic cAMP activity
[3] = target: T1, human GIP receptor; experiment: 125I-human GIP competition binding assay, in the presence and absence of 2% HSA; settings: for Fold change HSA (2%)/Casein (0.1%): IC50 (plus HSA)/IC50 (minus HSA); for Binding (+/−HSA) Fold: fold change +HSA/−HSA; for Fold change in affinity, IC50 (plus HSA)/IC50 (minus HSA): presence vs absence of 2% HSA, proxy for albumin binding;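 as to all read-outs here: nonspecific binding taken as radioligand bound to untransfected cells, IC50 obtained from nonlinear regression fits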
[4] = transiently transfected COS-7 cells, Table 1 and text, read-out: cAMP antagonism nM (IC50, antagonistic potency)
[5] = COS-7 cells, read-out: cAMP agonism nM (EC50)
[6] = binding in 0.1% casein (absence of HSA), log value, read-out: logIC50 0.1% casein (converted)
[7] = heterologous competition binding, transiently transfected COS-7 cells expressing the human GIP receptor, read-out: Binding

SMILES	IC50 [1, 4]	Emax ([2]; COS-7 cells)	EC50 [2, 5]	Fold change HSA (2%)/Casein (0.1%) [3]	IC50 [3, 6]	IC50 [3, 7]	Ability to antagonize the GIP-mediated cAMP response (in words) [1]	Fold change of IC50 versus GIP(5-30)NH2 [1]	Binding (+/−HSA) Fold [3]	Fold change in affinity, IC50 (plus HSA)/IC50 (minus HSA) [3]	EC50 ([2]; given as log EC50 (negative sign), read-out: cAMP agonism EC50 (log) (converted))	Ki ([3]; absence of HSA)	IC50 ([1]; Table 3b, initial data, read-out: cAMP - antagonisme IC50)	cAMP - antagonisme fold (paired) ([1]; fold vs GIP(3-30)NH2, Table 3b)	IC50 ([1]; given as log IC50 (negative sign), transiently transfected COS-7 cells, Table 1, read-out: cAMP antagonism log (converted))	IC50 ([3]; Table 3b, initial data, read-out: Binding IC50)	Binding fold (paired) ([3]; fold decrease in affinity compared to GIP(3-30)NH2, Table 3b)
CCCCCCCCCCCCCCCC(=O)NCCCC[C@H](NC(=O)[C@@H](NC(=O)[C@H](CCCNC(=N)N)NC(=O)[C@H](CC(=O)O)NC(=O)[C@H](CCSC)NC(=O)[C@H](C)NC(=O)[C@@H](NC(=O)[C@H](CO)NC(=O)[C@H](Cc1ccc(O)cc1)NC(=O)[C@H](CC(=O)O)NC(=O)[C@H](CO)NC(=O)[C@@H](NC(=O)[C@H](Cc1ccccc1)NC(=O)[C@@H](N)[C@@H](C)O)[C@@H](C)CC)[C@@H](C)CC)[C@@H](C)CC)C(=O)N[C@@H](CCC(N)=O)C(=O)N[C@@H](CCC(N)=O)C(=O)N[C@@H](CC(=O)O)C(=O)N[C@@H](Cc1ccccc1)C(=O)N[C@H](C(=O)N[C@@H](CC(N)=O)C(=O)N[C@@H](Cc1c[nH]c2ccccc12)C(=O)N[C@@H](CC(C)C)C(=O)N[C@@H](CC(C)C)C(=O)N[C@@H](C)C(=O)N[C@@H](CCC(N)=O)C(=O)N[C@@H](CCCNC(=N)N)C(N)=O)C(C)C [AT134, [hGIP(5-30)NH2[K16R; H18K; K30R]-16/18]] (H-TFISDYSIAMDRIK(Palmitoyl)QQDFVNWLLAQR-NH2; N-terminus assumed)	93 nM	11%	35 nM	5.5	794 nM	882 nM											
CC[C@H](C)[C@H](NC(=O)[C@H](CO)NC(=O)[C@H](Cc1ccc(O)cc1)NC(=O)[C@H](CC(=O)O)NC(=O)[C@H](CO)NC(=O)[C@@H](NC(=O)[C@H](Cc1ccccc1)NC(=O)[C@@H](N)[C@@H](C)O)[C@@H](C)CC)C(=O)N[C@@H](C)C(=O)N[C@@H](CCSC)C(=O)N[C@@H](CC(=O)O)C(=O)N[C@@H](CCCCN)C(=O)N[C@H](C(=O)N[C@@H](Cc1c[nH]cn1)C(=O)N[C@@H](CCC(N)=O)C(=O)N[C@@H](CCC(N)=O)C(=O)N[C@@H](CCCCNC(=O)CCCCCCCCCCCCCCC(=O)O)C(=O)N[C@@H](Cc1ccccc1)C(=O)N[C@H](C(=O)N[C@@H](CC(N)=O)C(=O)N[C@@H](Cc1c[nH]c2ccccc12)C(=O)N[C@@H](CC(C)C)C(=O)N[C@@H](CC(C)C)C(=O)N[C@@H](C)C(=O)N[C@@H](CCC(N)=O)C(=O)N[C@@H](CCCCN)C(N)=O)C(C)C)[C@@H](C)CC [AT181, [hGIP(5-30)NH2[D21K]-C16diacid/21]] (H-TFISDYSIAMDKIHQQK(C16 diacid)FVNWLLAQK-NH2; N-terminus assumed)	16 nM	9%	2 nM	5.2		48 nM	highest antagonistic potencies	0.5	3.6	5.2 fold							
CC[C@H](C)[C@H](NC(=O)[C@H](CO)NC(=O)[C@H](Cc1ccc(O)cc1)NC(=O)[C@H](CC(=O)O)NC(=O)[C@H](CO)NC(=O)[C@@H](NC(=O)[C@H](Cc1ccccc1)NC(=O)[C@@H](NC(=O)CCCCCCCCCCCCCCCCC(=O)O)[C@@H](C)O)[C@@H](C)CC)C(=O)N[C@@H](C)C(=O)N[C@@H](CCSC)C(=O)N[C@@H](CC(=O)O)C(=O)N[C@@H](CCCCN)C(=O)N[C@H](C(=O)N[C@@H](Cc1c[nH]cn1)C(=O)N[C@@H](CCC(N)=O)C(=O)N[C@@H](CCC(N)=O)C(=O)N[C@@H](CC(=O)O)C(=O)N[C@@H](Cc1ccccc1)C(=O)N[C@H](C(=O)N[C@@H](CC(N)=O)C(=O)N[C@@H](Cc1c[nH]c2ccccc12)C(=O)N[C@@H](CC(C)C)C(=O)N[C@@H](CC(C)C)C(=O)N[C@@H](C)C(=O)N[C@@H](CCC(N)=O)C(=O)N[C@@H](CCCCN)C(N)=O)C(C)C)[C@@H](C)CC [AT138, [hGIP(5-30)NH2—C18diacid/5]]		0%		3.8	2510 nM	2640 nM	failed to antagonize										
CC[C@H](C)[C@H](NC(=O)[C@H](CO)NC(=O)[C@H](Cc1ccc(O)cc1)NC(=O)[C@H](CC(=O)O)NC(=O)[C@H](CO)NC(=O)[C@@H](NC(=O)[C@H](Cc1ccccc1)NC(=O)[C@@H](N)[C@@H](C)O)[C@@H](C)CC)C(=O)N[C@@H](C)C(=O)N[C@@H](CCSC)C(=O)N[C@@H](CCCCNC(=O)CCCCCCCCCCCCCCC(=O)O)C(=O)N[C@@H](CCCCN)C(=O)N[C@H](C(=O)N[C@@H](Cc1c[nH]cn1)C(=O)N[C@@H](CCC(N)=O)C(=O)N[C@@H](CCC(N)=O)C(=O)N[C@@H](CC(=O)O)C(=O)N[C@@H](Cc1ccccc1)C(=O)N[C@H](C(=O)N[C@@H](CC(N)=O)C(=O)N[C@@H](Cc1c[nH]c2ccccc12)C(=O)N[C@@H](CC(C)C)C(=O)N[C@@H](CC(C)C)C(=O)N[C@@H](C)C(=O)N[C@@H](CCC(N)=O)C(=O)N[C@@H](CCCCN)C(N)=O)C(C)C)[C@@H](C)CC [AT177, [hGIP(5-30)NH2[D15K]-C16diacid/15]] (H-TFISDYSIAMK(C16 diacid)KIHQQDFVNWLLAQK-NH2; N-terminus assumed)	59 nM	30%		3.8		134 nM		1.3	3.8		100 nM	117 nM					
CCCCCCCCCCCCCCCCCC(=O)NCCCC[C@H](NC(=O)[C@H](CC(=O)O)NC(=O)[C@H](CCSC)NC(=O)[C@H](C)NC(=O)[C@@H](NC(=O)[C@H](CO)NC(=O)[C@H](Cc1ccc(O)cc1)NC(=O)[C@H](CC(=O)O)NC(=O)[C@H](CO)NC(=O)[C@@H](NC(=O)[C@H](Cc1ccccc1)NC(=O)[C@@H](NC(=O)CNC(=O)[C@@H](N)CCC(=O)O)[C@@H](C)O)[C@@H](C)CC)[C@@H](C)CC)C(=O)N[C@H](C(=O)N[C@@H](Cc1c[nH]cn1)C(=O)N[C@@H](CCC(N)=O)C(=O)N[C@@H](CCC(N)=O)C(=O)N[C@@H](CC(=O)O)C(=O)N[C@@H](Cc1ccccc1)C(=O)N[C@H](C(=O)N[C@@H](CC(N)=O)C(=O)N[C@@H](Cc1c[nH]c2ccccc12)C(=O)N[C@@H](CC(C)C)C(=O)N[C@@H](CC(C)C)C(=O)N[C@@H](C)C(=O)N[C@@H](CCC(N)=O)C(=O)N[C@@H](CCCCN)C(N)=O)C(C)C)[C@@H](C)CC [AT114, [hGIP(3-30)NH2—C18/16]]		39%		11.2	501 nM					7.7 fold			29.2 nM	2.3 fold	63.1 nM	102 nM	6.7 fold
CCCCCCCCCCCCCCCC(=O)N[C@H](C(=O)N[C@@H](Cc1ccccc1)C(=O)N[C@H](C(=O)N[C@@H](CO)C(=O)N[C@@H](CC(=O)O)C(=O)N[C@@H](Cc1ccc(O)cc1)C(=O)N[C@@H](CO)C(=O)N[C@H](C(=O)N[C@@H](C)C(=O)N[C@@H](CCSC)C(=O)N[C@@H](CC(=O)O)C(=O)N[C@@H](CCCNC(=N)N)C(=O)N[C@H](C(=O)N[C@@H](Cc1c[nH]cn1)C(=O)N[C@@H](CCC(N)=O)C(=O)N[C@@H](CCC(N)=O)C(=O)N[C@@H](CC(=O)O)C(=O)N[C@@H](Cc1ccccc1)C(=O)N[C@H](C(=O)N[C@@H](CC(N)=O)C(=O)N[C@@H](Cc1c[nH]c2ccccc12)C(=O)N[C@@H](CC(C)C)C(=O)N[C@@H](CC(C)C)C(=O)N[C@@H](C)C(=O)N[C@@H](CCC(N)=O)C(=O)N[C@@H](CCCNC(=N)N)C(N)=O)C(C)C)[C@@H](C)CC)[C@@H](C)CC)[C@@H](C)CC)[C@@H](C)O [AT135, [hGIP(5-30)NH2[K16R; K30R]-C16/5]] (Palmitoyl-TFISDYSIAMDRIHQQDFVNWLLAQR-NH2)		0%		0.2	6310 nM	5940 nM	failed to antagonize										
